In paper PMC10526274, “Epithelial-Immune Cell Crosstalk Determines the Activation of Immune Cells In Vitro by the Human Cathelicidin LL-37 at Low Physiological Concentrations” (Biomolecules, 2023):
“And” between values parts separate entries of the source, which are not always exact repeats. Equal values may be shown once.

Tested on: monocyte-derived dendritic cells (moDCs)
Test: Multiplex xMAP cytokine levels, moDCs alone stimulated with LL-37
Type: cell-based, human
Conditions: 1 µM LL-37, 24 h
Experimental: Peripheral blood mononuclear cells (PBMCs) from a healthy donor were purchased from the American Type Culture Collection (ATCC PCS-800-011). Blood monocytes were isolated from PBMCs by plastic adhesion. Mature monocyte-derived dendritic cells (moDCs) were generated in vitro from peripheral blood monocytes, according to Nair et al.. Briefly, monocytes were cultured in a humidified CO2-incubator (5% CO2, 37 °C) in the complete RPMI-1640 medium (Gibco) with 10% FBS, antibiotics, and supplemented with a cytokine cocktail containing 500 U/mL rhIL-4 and 800 U/mL rhGM-CSF (both Sci-Store, Moscow, Russia). On the third day, the medium was replaced by the same fresh medium with FBS, antibiotics, and the cytokine cocktail. Induction of maturation of the immature monocyte-derived dendritic cells was performed on the 5th day by replacing the medium with the complete RPMI-1640 medium (Gibco) with 10% FBS and antibiotics, supplemented with a cytokine cocktail containing 500 U/mL rhIL-4, 800 U/mL rhGM-CSF (both Sci-Store, Moscow, Russia), and 100 U/mL rhTNF-α (Sigma-Aldrich), and subjected to subsequent incubation of the culture for 4 more days.
Primary blood monocytes, moDCs, and NKT cells were seeded in 600 µL of complete RPMI-1640 with 10% Human AB serum (Capricorn Scientific, Ebsdorfergrund, Germany) and supplemented with 1X antibiotic–antimycotic solution into the wells of 24-well plates at a density of 3–7 × 10^5 cells/well 24 h before the experiment. Then, 24 h later, the medium in each well was replaced by the same medium with 1 µM of LL-37 for the sample wells or fresh medium alone for the control wells, and the permeable inserts with the Caco-2 monolayer with TEER > 400 Ω × cm^2, containing 400 μL of the complete medium in their apical chamber, were immediately placed into the appropriate wells. Also, inserts with the Caco-2 monolayer were placed in cell-free wells of 24-well plates in the same complete RPMI-1640 medium with or without 1 µM of LL-37 as controls. Cells were kept in a CO2-incubator (5% CO2, 37 °C) for another 24 h. Then, culture medium from each well was collected, centrifuged, and frozen at −70 °C.
To quantitatively evaluate a broad spectrum of analytes secreted by human cell cultures at the protein level, multiplex xMAP technology was used. The chosen panel (cat. #HCYTA-60K-PX48, Merck, Darmstadt, Germany) included 48 different magnetic beads with primary antibodies to the following cytokines, chemokines, and growth factors: CCL11 (Eotaxin-1), Flt-3 ligand, CX3CL1 (Fractalkine), sCD40L, FGF-2, EGF, GROα, GM-CSF, G-CSF, IL-1RA, IL-1α, IL-1β, IL-2, IL-3, IL-4, IL-5, IL-6, IL-7, CXCL8 (IL-8), IL-9, IL-10, IL-12p40, IL-12p70, IL-13, IL-15, IL-17A (CTLA8), IL-17E (IL-25), IL-17F, IL-18, IL-22, IL-27, IFNγ, IFNα2, CXCL10 (IP-10), CCL2 (MCP-1), CCL7 (MCP-3), CCL22 (MDC), CXCL9 (MIG), CCL3 (MIP-1α), CCL4 (MIP-1β), CCL5 (RANTES), M-CSF, PDGF-AA, PDGF-AB/BB, TNFα, TNFβ, TGFα, and VEGF-A. The assay was performed in accordance with the manufacturer’s instructions with overnight incubation of the samples with primary antibodies, and the plate was read on a MAGPIX System (Merck) using the xPONENT 4.2 software (Merck). The acquired fluorescence data were analyzed by the MILLIPLEX Analyst v5.1 software (Merck), which realized an advanced curve-fitting algorithm. Levels of the analytes in control and experimental samples were compared with an unpaired two-sample t-test using GraphPad Prism v.8.0.1 (GraphPad Software, Inc., San Diego, CA, USA). The p-values ≤ 0.05 were considered significant.

LL-37: the only human cathelicidin, host defense antimicrobial peptide of 37 a.a. residues, produced by solid-phase peptide synthesis
FLT-3L level (n=2, control 0.57): 0.51 pg/mL | IL-2 level (n=2, control 0.91): 0.91 pg/mL | IL-4 level (n=2, control 1.14): 1.31 pg/mL | TNFb level (n=2, control 1.49): 1.3 pg/mL | IL-3 level (n=2, control 1.55): 0.91 pg/mL | IL-18 level (n=2, control 1.61): 0.63 pg/mL | VEGFa level (n=2, control 2.82): 4.61 pg/mL | IL-15 level (n=2, control 4.12): 4.36 pg/mL | IL-5 level (n=2, control 4.63): 3.23 pg/mL | IFNg level (n=2, control 5.89): 5.02 pg/mL | EGF level (n=2, control 7.65): 6.75 pg/mL | IL-9 level (n=2, control 8.22): 7.84 pg/mL | IL-1b level (n=2, control 9.37): 7 pg/mL | IFNa2 level (n=2, control 10.16): 11.65 pg/mL | IL-1RA level (n=2, control 11.72): 11.72 pg/mL | GM-CSF level (n=2, control 13.02): 10.06 pg/mL | IL-22 level (n=2, control 13.22): 11.11 pg/mL | G-CSF level (n=2, control 20.3): 13.54 pg/mL | PDGF-AA level (n=2, control 24.8): 25.69 pg/mL | TGF-a level (n=2, control 25.07): 20.52 pg/mL | IL-6 level (n=2, control 27.8): 30.65 pg/mL | Fractalkine level (n=2, control 28.72): 25.92 pg/mL | IL-13 level (n=2, control 36.28): 29.87 pg/mL | TNFa level (n=2, control 40.81): 40.03 pg/mL | FGF-2 level (n=2, control 48.6): 47.27 pg/mL | GROa level (n=2, control 51.39): 53.94 pg/mL | IL-27 level (n=2, control 55.75): 59.83 pg/mL | IL-12 (p40) level (n=2, control 61.22): 61.22 pg/mL | IP-10 level (n=2, control 66.42): 57.64 pg/mL | PDGF-AB/BB level (n=2, control 72.4): 70.07 pg/mL | IL-10 level (n=2, control 89.23, p = 0.0058): 62 pg/mL and 62.12 pg/mL | sCD40L level (n=2, control 98.84): 95.47 pg/mL | M-GSF level (n=2, control 200.96): 185.65 pg/mL | RANTES level (n=2, control 423.03): 417.4 pg/mL | MCP-3 level (n=2, control 573.83): 545.69 pg/mL | MIP-1b level (n=2, control 2042): 2065 pg/mL | MIP-1a level (n=2, control 2533): 2368 pg/mL | MCP-1 level (n=2, control 3176): 2573 pg/mL | IL-8 level (n=2, control 4102): 4051 pg/mL | MIG level (n=2, control 27057): 23618 pg/mL | IL-7 level (n=2, control <0.30): <0.30↓ pg/ml | IL-17A level (n=2, control <0.70): <0.70↓ pg/ml | IL-1a level (n=2, control <1.30): <1.30↓ pg/ml | IL-12 (p70) level (n=2, control <1.71): <1.71↓ pg/ml | Eotaxin level (n=2, control <2.91): <2.91↓ pg/ml | IL-17F level (n=2, control <12.19): <12.19↓ pg/ml | IL-17E/IL-25 level (n=2, control <19.43): <19.43↓ pg/ml | MDC level (n=2, control >14590): >14590↑ pg/ml
